This experiment addresses T1, N-formyl peptide receptor 2 (Homo sapiens, UniProt P25090).
T1 sequence (P25090 whole entry): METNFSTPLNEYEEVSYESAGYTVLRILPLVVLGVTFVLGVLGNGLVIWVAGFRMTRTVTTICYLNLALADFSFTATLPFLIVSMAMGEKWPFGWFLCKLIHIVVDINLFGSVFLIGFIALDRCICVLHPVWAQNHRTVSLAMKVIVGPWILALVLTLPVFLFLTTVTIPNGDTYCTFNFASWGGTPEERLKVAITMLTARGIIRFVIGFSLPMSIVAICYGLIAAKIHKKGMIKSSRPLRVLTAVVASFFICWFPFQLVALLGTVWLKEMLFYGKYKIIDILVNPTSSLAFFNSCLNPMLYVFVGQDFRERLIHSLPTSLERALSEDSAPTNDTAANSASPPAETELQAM
Description: hFPRL1-Mediated Ca2+ Mobilization Assay. Particulars: pH 7.2; 37 °C. On the procedure: hFPRL 1 activity was assayed using an aequorin-based bioluminescence assay (Ca2+ flux). EC50 values have been determined by Ca2+ flux in CHO recombinant cells co-expressing hFPRL1, G (alpha15) protein, and aequorin.
(Calcium assays in cells follow changes in intracellular calcium, usually with a dye or a luminescent sensor.)

For the compound `COc1ccc2[nH]c(C(=O)N3CCC(n4c(=O)[nH]c5ccccc54)CC3)cc2c1` [1-{1-[(5-methoxy-1H-indol-2-yl)carbonyl]piperidin-4-yl}-1,3-dihydro-2H-benzimidazol-2-one], the EC50 was found to be 6.39 µM.

As a reminder, the EC50 is the concentration giving half of the maximal effect. Read a high EC50 as weaker potency.

The record behind these values is BindingDB's records for doi:10.1016/j.bmcl.2007.09.043 (Amgen, 2007).
